Experimental findings from PubChem BioAssay AID624396 (The Scripps Research Institute Molecular Screening Center, 2012) are described below.

Values joined by “and” are separate entries in the source; they are usually repeats but may differ in a detail not shown here. Equal entries are not always repeated.

What all share (assay): pro-apoptotic nuclear morphology in cancer cells – imaging, DAPI staining, cell line panel, probe, mechanism study for MCL1-BIM inhibitor project, late-stage follow-up (AID 624396)
Assay [1] relates to 1780 MCl1. Conditions: cancer cell panel apoptosis.
Assay [2] relates to NCI-H929. The note with it: cancer cell panel apoptosis.
Assay [3] has as its system DHL-6. The note with it: cancer cell panel apoptosis.
Assay [4] has as its system 1863 BCL-XL. The note with it: cancer cell panel apoptosis.
Assay [5] has as its system DHL-10. Conditions: cancer cell panel apoptosis, single IC50 determination, other campaign.

The term IC50 denotes the concentration at which inhibition is half-maximal. Consider `CCN1CCN(C(c2ccc(C(F)(F)F)cc2)c2ccc3cccnc3c2O)CC1` (stereo not given), for which the half-maximal inhibitory concentration (IC50) is 700 nM and 300 nM in assay [1]; 3600 nM and 1600 nM in assay [2]; 2200 nM and 3300 nM in assay [3]; 1200 nM and 1100 nM in assay [4]; over 25000 nM in assay [5].
